System: PBMCs from HCMV seropositive subjects
Assay: ex vivo IFN-γ Fluorospot assay
Type: cell-based, human
Conditions: 19 HCMV seropositive subjects, individual peptide 10 ug/ml, 20 hr; for No. of subjects responding: IFN-γ; for Magnitude of response: IFN-γ spots (FIG. 1: SFC/10^6 PBMC; no unit in table)
In short: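 PBMC (200,000/well, triplicate) from HCMV-seropositive donors were stimulated for 20 h at 37 °C with 15-mer peptide pools (2 ug/ml) or single peptides (10 ug/ml). IFN-γ spots were counted by Fluorospot. Positivity required ≥20 SFC/10^6 PBMC over DMSO background, stimulation index >2 and p<0.05.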

Substance	No. of subjects responding	Magnitude of response
232 (ITFCLYVGQFLAYVR) [compound 232]	1	27
233 (HDPLGLTRFIMRQLM) [compound 233]	1	473
234 (FIMRQLMMYPLVLPF) [compound 234]	1	530
235 (GLVYRELHDFYGYLQ) [compound 235]	1	963

From US20250332249A1, “CYTOM[…] CELL EPITOPES AND USES THEREOF” (LA JOLLA INSTITUTE FOR IMMUNOLOGY, priority 2021, published 2025)
